Experiments:
Assay in all cases: relative viability (nuclei count vs DMSO), 5 days (fraction); higher = more cells survive
Etoposide + Palbociclib = compound: COc1cc([C@@H]2c3cc4c(cc3[C@@H](O[C@@H]3O[C@@H]5CO[C@@H](C)O[C@H]5[C@H](O)[C@H]3O)[C@H]3COC(=O)[C@H]23)OCO4)cc(OC)c1O [Etoposide] + CC(=O)c1c(C)c2cnc(Nc3ccc(N4CCNCC4)cn3)nc2n(C2CCCC2)c1=O [Palbociclib] (partner 0.5 µM)
Procedure, shortened: (§1)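 Relative viability equals treated-well nuclei counts divided by vehicle-well nuclei counts. Counts came from 4× images of lung cancer cell lines grown in 1536-well plates for 5 days after pin-tool dosing on the day after seeding. Dosing used one drug alone or a fixed anchor-drug dose plus five library-drug doses (not always all listed) in √10 steps, and values are medians of duplicate plates.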

Bleomycin + Palbociclib = compound: CC1=C(N=C(N=C1N)[C@H](CC(=O)N)NC[C@@H](C(=O)N)N)C(=O)N[C@@H]([C@H](C2=CN=CN2)OC3C(C(C(C(O3)CO)O)O)OC4C(C(C(C(O4)CO)O)OC(=O)N)O)C(=O)N[C@H](C)[C@H]([C@H](C)C(=O)N[C@@H]([C@@H](C)O)C(=O)NCCC5=NC(=CS5)C6=NC(=CS6)C(=O)NCCC[S+](C)C)O [Bleomycin] + CC(=O)c1c(C)c2cnc(Nc3ccc(N4CCNCC4)cn3)nc2n(C2CCCC2)c1=O [Palbociclib] (partner 0.5 µM); conditions: main component drawn
Procedure, shortened: as §1

Bleomycin + Luminespib = compound: CC1=C(N=C(N=C1N)[C@H](CC(=O)N)NC[C@@H](C(=O)N)N)C(=O)N[C@@H]([C@H](C2=CN=CN2)OC3C(C(C(C(O3)CO)O)O)OC4C(C(C(C(O4)CO)O)OC(=O)N)O)C(=O)N[C@H](C)[C@H]([C@H](C)C(=O)N[C@@H]([C@@H](C)O)C(=O)NCCC5=NC(=CS5)C6=NC(=CS6)C(=O)NCCC[S+](C)C)O [Bleomycin] + CCNC(=O)c1noc(-c2cc(C(C)C)c(O)cc2O)c1-c1ccc(CN2CCOCC2)cc1 [Luminespib] (partner 0.01 µM); conditions: main component drawn
Procedure, shortened: as §1

Bleomycin + AZD7762 = compound: CC1=C(N=C(N=C1N)[C@H](CC(=O)N)NC[C@@H](C(=O)N)N)C(=O)N[C@@H]([C@H](C2=CN=CN2)OC3C(C(C(C(O3)CO)O)O)OC4C(C(C(C(O4)CO)O)OC(=O)N)O)C(=O)N[C@H](C)[C@H]([C@H](C)C(=O)N[C@@H]([C@@H](C)O)C(=O)NCCC5=NC(=CS5)C6=NC(=CS6)C(=O)NCCC[S+](C)C)O [Bleomycin] + NC(=O)Nc1cc(-c2cccc(F)c2)sc1C(=O)N[C@H]1CCCNC1 [AZD7762] (partner 0.2 µM); conditions: main component drawn
Procedure, shortened: as §1

| Cell Line | relative viability (Etoposide + Palbociclib; first compound 0.01 µM) | relative viability (Etoposide + Palbociclib; first compound 0.03162 µM) | relative viability (Etoposide + Palbociclib; first compound 0.1 µM) | relative viability (Etoposide + Palbociclib; first compound 0.3162 µM) | relative viability (Etoposide + Palbociclib; first compound 1 µM) | relative viability (Bleomycin + Palbociclib; first compound 0.01 µM) | relative viability (Bleomycin + Palbociclib; first compound 0.03162 µM) | relative viability (Bleomycin + Palbociclib; first compound 0.1 µM) | relative viability (Bleomycin + Palbociclib; first compound 0.3162 µM) | relative viability (Bleomycin + Palbociclib; first compound 1 µM) | relative viability (Bleomycin + Luminespib; first compound 0.01 µM) | relative viability (Bleomycin + Luminespib; first compound 0.03162 µM) | relative viability (Bleomycin + Luminespib; first compound 0.1 µM) | relative viability (Bleomycin + Luminespib; first compound 0.3162 µM) | relative viability (Bleomycin + Luminespib; first compound 1 µM) | relative viability (Bleomycin + AZD7762; first compound 0.01 µM) | relative viability (Bleomycin + AZD7762; first compound 0.03162 µM) | relative viability (Bleomycin + AZD7762; first compound 0.1 µM) | relative viability (Bleomycin + AZD7762; first compound 0.3162 µM) | relative viability (Bleomycin + AZD7762; first compound 1 µM) |
| --- | --- | --- | --- | --- | --- | --- | --- | --- | --- | --- | --- | --- | --- | --- | --- | --- | --- | --- | --- | --- |
| SK-LU-1 | 0.381 | 0.397 | 0.319 | 0.247 | 0.22 | 0.356 | 0.461 | 0.35 | 0.312 | 0.332 | 0.197 | 0.202 | 0.272 | 0.216 | 0.191 |  |  |  |  |  |
| HCC-366 | 0.341 | 0.375 | 0.257 | 0.071 | 0.0568 | 0.19 | 0.155 | 0.106 | 0.0548 | 0.0409 |  |  |  |  |  | 0.305 | 0.231 | 0.156 | 0.065 | 0.0338 |
| SK-MES-1 | 0.338 | 0.31 | 0.315 | 0.262 | 0.239 | 0.313 | 0.306 | 0.329 | 0.254 | 0.204 | 0.701 | 0.641 | 0.641 | 0.244 | 0.202 |  |  |  |  |  |
| NCI-H520 | 0.256 | 0.245 | 0.193 | 0.254 | 0.227 | 0.215 | 0.218 | 0.215 | 0.203 | 0.206 | 0.227 | 0.196 | 0.218 | 0.24 | 0.213 |  |  |  |  |  |
| NCI-H661 | 0.415 | 0.468 | 0.332 | 0.384 | 0.352 | 0.39 | 0.398 | 0.354 | 0.335 | 0.312 | 0.78 | 0.807 | 0.564 | 0.299 | 0.284 |  |  |  |  |  |
| NCI-H2228 | 0.705 | 0.765 | 0.435 | 0.32 | 0.145 | 0.719 | 0.683 | 0.465 | 0.411 | 0.226 | 0.149 | 0.129 | 0.186 | 0.128 | 0.15 |  |  |  |  |  |
| NCI-H596 |  |  |  |  |  |  |  |  |  |  | 0.755 | 0.617 | 0.552 | 0.335 | 0.377 | 1.06 | 1.03 | 0.891 | 0.349 | 0.398 |
| NCI-H2023 | 0.312 | 0.201 | 0.351 | 0.201 | 0.173 | 0.333 | 0.302 | 0.25 | 0.125 | 0.13 | 0.526 | 0.531 | 0.454 | 0.128 | 0.0778 |  |  |  |  |  |
| NCI-H2009 | 0.203 | 0.213 | 0.145 | 0.25 | 0.148 | 0.202 | 0.164 | 0.215 | 0.16 | 0.192 | 0.962 | 1.04 | 0.961 | 0.704 | 0.618 |  |  |  |  |  |

— the supplement of paper PMC10307832
